Laboratory results taken from ChEMBL document CHEMBL4402555, “Impact of the structure-activity relationship of AHL analogues on quorum sensing in Gram-negative bacteria” (Bioorg Med Chem, 2020).
Blank lines part the entries; values can stand above or below the compound they belong to.

Assays:
[1] = target: T1, Transcriptional activator protein LuxR (Aliivibrio fischeri, UniProt P12746); assay: Agonist activity at Aliivibrio fischeri LuxR by luminescence method
T1 sequence (P12746 whole entry): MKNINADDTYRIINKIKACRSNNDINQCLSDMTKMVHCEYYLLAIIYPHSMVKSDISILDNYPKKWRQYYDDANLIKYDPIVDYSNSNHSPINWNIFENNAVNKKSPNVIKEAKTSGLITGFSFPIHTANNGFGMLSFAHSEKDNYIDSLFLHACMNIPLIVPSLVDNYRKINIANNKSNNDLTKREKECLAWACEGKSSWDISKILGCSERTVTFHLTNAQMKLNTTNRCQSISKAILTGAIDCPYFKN

[2] = target: T1, Transcriptional activator protein LuxR; assay: Antagonist activity at Aliivibrio fischeri ES114 LuxR after 4 to 8 hrs by luminescence method
[3] = Activation of LasR in Escherichia coli JLD271 harboring pSC11/pJN105L using CPRG as substrate incubated for 4 hrs by Miller assay method
[4] = target: T2, Transcriptional activator protein LasR (Pseudomonas aeruginosa (strain ATCC 15692 / PAO1 / 1C / PRS 101 / LMG12228), UniProt P25084); assay: Activation of LasR in Pseudomonas aeruginosa PAO-JP2 harboring plasI-LVAgfp incubated for 6 hrs by fluorescence method
T2 sequence (P25084 whole entry): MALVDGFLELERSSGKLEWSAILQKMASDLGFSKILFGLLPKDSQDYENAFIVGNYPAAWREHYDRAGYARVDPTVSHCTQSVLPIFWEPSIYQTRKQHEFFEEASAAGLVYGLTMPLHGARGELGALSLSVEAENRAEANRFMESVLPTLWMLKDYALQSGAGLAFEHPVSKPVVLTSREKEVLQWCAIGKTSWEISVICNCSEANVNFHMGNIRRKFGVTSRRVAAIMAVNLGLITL

[5] = target: T2, Transcriptional activator protein LasR; assay: Antagonist activity at Pseudomonas aeruginosa LasR transfected with lasB-GFP by […] method
[6] = target: T1, Transcriptional activator protein LuxR; assay: Antagonist activity at Aliivibrio fischeri LuxR by luminescence method
[7] = Inhibition of quorum sensing system in Pseudomonas aeruginosa transfected with lasB-lacZ in presence of PA1
[8] = target: T2, Transcriptional activator protein LasR; assay: Inhibition of LasR in Pseudomonas aeruginosa PAO-JP2 harboring plasI-LVAgfp incubated for 6 hrs by fluorescence method
[9] = target: T3, Transcriptional activator protein LasR (Pseudomonas aeruginosa (strain ATCC 15692 / PAO1 / 1C / PRS 101 / LMG12228)) (UniProt P25084); assay: Antagonist activity at LasR in Pseudomonas aeruginosa PAO1 assessed as inhibition of pyocyanin production at 50 uM incubated for 13 hrs relative to control
T3 sequence (whole entry): T2 sequence (P25084 whole entry)

[10] = Inhibition of LasR in Escherichia coli JLD271 harboring pSC11/pJN105L using CPRG as substrate incubated for 4 hrs by Miller assay method

SMILES: O=C(Cc1ccc([N+](=O)[O-])cc1)N[C@H]1CCOC1=O
IC50 [2]: 1 µM

SMILES: O=C(COc1cccc(Br)c1)N[C@H]1CCSC1=O
EC50 [3]: 0.013 µM | EC50 [4]: 4.2 µM

SMILES: O=C(CC(=O)NC1CCOC1=O)Cc1ccccc1Cl (centres undefined)
IC50 [6]: 6 µM

SMILES: Cc1ccc(SCC(=O)N[C@H]2CCOC2=O)cc1
IC50 [5]: 50 µM

SMILES: O=C1OCCC1NS(=O)(=O)Cc1ccccc1 (centres undefined)
IC50 [6]: 40 µM

SMILES: CCCCCCS(=O)(=O)NC1CCOC1=O (centres undefined)
IC50 [6]: 6.5 µM

SMILES: CCCCCCCCCC(=O)NC1CCCC1 [N-CYCLOPENTYLDECANAMIDE]
IC50 [7]: 80 µM | IC50 [8]: > 50 µM

SMILES: Cc1ccc(CC(=O)CC(=O)NC2CCOC2=O)cc1 (centres undefined)
IC50 [6]: 4 µM

SMILES: O=C(CC(=O)NC1CCOC1=O)Cc1ccc(Cl)cc1 (centres undefined)
IC50 [6]: 3 µM

SMILES: CCCCCCCCC(=O)CC(=O)Nc1cccc(OC)c1
inhibition [9]: 74%

SMILES: O=C(NCc1cc(Br)cc(Br)c1OC(=O)c1ccccc1[N+](=O)[O-])c1ccccc1Cl
EC50 [3]: 0.0078 µM

SMILES: CCCCCCCCCSCC(=O)N[C@H]1CCOC1=O
IC50 [5]: 50 µM

SMILES: O=C(CC(=O)NC1CCOC1=O)Cc1ccc(C(F)(F)F)cc1 (centres undefined)
IC50 [6]: 10 µM

SMILES: COc1ccc(CC(=O)CC(=O)NC2CCOC2=O)cc1 (centres undefined)
IC50 [6]: 3 µM

SMILES: CCC(=O)CC(=O)NC1CCCCC1=O (centres undefined)
EC50 [3]: 0.24 µM | EC50 [4]: > 200 µM | IC50 [8]: > 100 µM

SMILES: CCC(=O)CC(=O)Nc1ccccc1
EC50 [3]: 0.92 µM | IC50 [8]: 9.7 µM

SMILES: O=C(CCCc1ccccc1)N[C@H]1CCOC1=O
IC50 [8]: 175 µM | IC50 [10]: 1 µM

SMILES: CCCCCCCCCNC(=O)CC(=O)c1ccccc1
IC50 [10]: 2.3 µM

SMILES: O=C(Cc1ccccc1)CS(=O)(=O)NC1CCOC1=O (centres undefined)
IC50 [6]: 40 µM

Other lines, results leading:

EC50 [1]: > 6 µM
SMILES: O=C(CCCC1CCCCC1)NC1CCOC1=O (centres undefined)

EC50 [1]: 0.5 µM
SMILES: CC(C)CC(=O)CC(=O)N[C@H]1CCOC1=O

IC50 [5]: 50 µM
SMILES: CCCCCCC[S+]([O-])CC(=O)NC1CCOC1=O (centres undefined)

IC50 [5]: 6 µM
SMILES: CCCCCCCSCC(=O)N[C@H]1CCOC1=O

EC50 [1]: 0.25 µM
SMILES: O=C(CC(=O)N[C@H]1CCOC1=O)CC1CCCC1

IC50 [6]: 40 µM
SMILES: CCCC(=O)CS(=O)(=O)NC1CCOC1=O (centres undefined)

IC50 [10]: 3.5 µM | IC50 [2]: 3.7 µM
SMILES: O=C(Cc1ccc(Br)cc1)N[C@H]1CCOC1=O

EC50 [3]: 8.4 µM | IC50 [10]: 0.16 µM
SMILES: O=C(CCc1ccc(Br)cc1)N[C@H]1CCOC1=O

EC50 [1]: 1.1 µM
SMILES: O=C(CC(=O)N[C@H]1CCOC1=O)CC1CCCCC1

IC50 [6]: 2 to 3 µM
SMILES: O=C(CCCc1ccccc1)NC1CCOC1=O (centres undefined)

EC50 [3]: 4.5 µM | IC50 [10]: 0.078 µM
SMILES: CCCCCC(=O)CC(=O)N[C@H]1CCOC1=O
